Values quoted from earlier work as cited in patent US20230020217A1, “HEPES-CONTAINING MEDIUM” (AJINOMOTO CO., INC., priority 2020, published 2023).

Conditions: when exposed to light for a long time (Zigler et al. 1985)

Q: Which toxicity does the source give for `O=S(=O)(O)CCN1CCN(CCO)CC1` [HEPES, 4-(2-hydroxyethyl)-1-piperazineethanesulfonic acid] here?
A: Its toxicity is “toxicity derived from hydrogen peroxide”.
